Laboratory results as given in patent US11083725B2 (priority 2014, dated 2021).
“Also recorded” adds a separate entry of the source.

What was measured:
CA09 [1] = assay: High-throughput modified TCID50 viral titer of drug-screen supernatant on MDCK cells (area under the curve); format: cell-based, influenza virus H1N1 strain A/CA/04/2009; settings: supernatant of CA09-infected NHBE cells titrated on MDCK cells
NHBE cells [2] = assay: Seahorse metabolic flux (ECAR, OCR, PPR) in NHBE cells; format: cell-based, human; settings: drug 4 hours then infection at 1 MOI with CA04, read 17 hours later
Procedure: OCR and ECAR were measured with the XF-24 Extracellular Flux Analyzer (Seahorse Bioscience, North Billerica, Mass.). Briefly, 2.5×10^5 cells/well were seeded with XF media (non-buffered DMEM with 25 mM glucose, 2 mM L-glutamine, and 1 mM sodium pyruvate) in a Cell-Tak (BD Biosciences, San Jose, Calif.)-coated plate 17 hours after infection and 1 hour before loading the plate into the instrument.
Referring to FIG. 6A-C, NHBE cells were grown and differentiated in 24-well Seahorse plates and left untreated (control), infected for 17 hours at MOI 1 with either viable virus or a […] virus (CA09 or BPL, respectively) or stimulated with TLR agonists lipopolysaccharide (LPS), polyinosinic polycytidylic acid (PolyIC), or Resiquimod (R848). After treatment, the extracellular acidification rate (ECAR) (6A), oxygen consumption rate (OCR) (6B), and proton production rate (PPR) (6C) of NHBE cells were monitored for 2 hours. Error bars represent standard deviation from the mean of triplicate samples, where data represent 3 independent experiments.
Referring to FIG. 12C-E, NHBE cells were seeded in XF24 SEAHORSE cell […] for 4 hours followed by infection at 1 MOI with CA04. 17 hours later plates were processed and read on Seahorse following manufactures protocol.

NHBE cells [3] = assay: Seahorse spare respiratory and glycolytic capacity of infected NHBE cells; format: cell-based, human; settings: 10 nM BEZ235 for 1 hr, infected 17 hours at MOI 1 with CA04
CA09 [4] = assay: microbe, parasite or virus in culture; format: cell-based, influenza virus H1N1 strain A/CA/04/2009
PI3K/mTOR pathway = assay: Immunoblot of PI3K/mTOR pathway phosphorylation in infected NHBE cells; format: cell-based, human
cMyc = assay: Influenza-induced cMyc expression in NHBE cells; format: cell-based, human; settings: NHBE cells infected with CA04 up to 17 hours at MOI 1
Procedure: Referring to FIG. 13B, NHBE cells were infected with CA04 for up to 17 hours at MOI 1, harvested at indicated time and RNA purified from lysates then quantified with […].

[5] = Whole-body plethysmography of respiratory parameters in infected treated mice
[6] = Blood chemistry and blood cell counts in treated infected mice; format: in vivo, C57/B6 mice; settings: 25 mg/kg daily oral gavage
Procedure: Referring to FIG. 9A-E, daily drug treatment was started 48 hours before intranasal infection with CA09 at an infectious dose of […] and maintained for 7 days. […] Data represent 3 mice per group.

NHBE cells [7] = assay: cells; format: cell-based, human
CA09 [8] = assay: In vivo drug tests in CA09-infected mice: weight loss, survival, lung viral titer; set-up: species or system C57/B6 mice
BMDCs = format: cell-based, mouse
[9] = NHBE, read-out: TCID50 (per mL)
[10] = infected mice, whole-body plethysmography

With `Cn1c(=O)n(-c2ccc(C(C)(C)C#N)cc2)c2c3cc(-c4cnc5ccccc5c4)ccc3ncc21` [NVP-BEZ235] the “viral titers in the high-throughput screening” value (CA09 [1]) was “reduced”, the “influenza induced metabolic flux (ECAR, OCR, PPR)” value (NHBE cells [2]) was “reverse influenza induced metabolic flux to untreated levels; also recorded: reversed” and the “glycolytic capacity of infected NHBE” value (NHBE cells [3]) was “slightly reducing; also recorded: slightly reduces”. The “spare respiratory capacity of infected NHBE” value (NHBE cells [3]) was “restores”, the “Viral Titer Prophylactic” value (CA09 [4]) was “Reduced” and the “viral titers in NHBE cells (validated drug hits)” value (CA09 [4]) was “consistently reduced; also recorded: consistent reduction; also recorded: one of the most significant drops; also recorded: highest efficacy”. The log reduction at 10 pM (CA09 [4]; [9]) was 0.75, the log reduction at 0.0001 µM (CA09 [4]; [9]) was 0.42 and the log reduction at 0.001 µM (CA09 [4]; [9]) was 0.5. It also gave a log reduction at 0.01 µM (CA09 [4]; [9]) of 0.53, a log reduction at 0.1 µM (CA09 [4]; [9]) of 0.29 and a log reduction at 1 µM (CA09 [4]; [9]) of 0.51. For the same molecule, the log reduction at 10 µM (CA09 [4]; [9]) was 0.97, the log reduction at 100 µM (CA09 [4]; [9]) was 0.91 and the 4E-BP1 phosphorylation (PI3K/mTOR pathway) was “completely abolished”. For the same molecule, the 70S6K phosphorylation (PI3K/mTOR pathway) was “completely abolished”, the mTOR phosphorylation (PI3K/mTOR pathway) was “reduces” and the “phosphorylation of PRAS40” value (PI3K/mTOR pathway) was “time dependent decrease”. For the same molecule, the “influenza-induced cMyc expression” value (cMyc) was “ablates”, the respiratory function ([5]; infected adult mice) was “augments” and the breath frequency [5, 10] was “decreases”. For the same molecule, the expiration time [5, 10] was “increases”, the inspiration time [5, 10] was “increases” and the mid-expiratory tidal flow [5, 10] was “reduction”. For the same molecule, the minute volume [5, 10] was “decreases”, the tidal flow [5, 10] was “decreases” and the tolerability [6] was “well tolerated”. The blood amylase ([6]; bled on day 7) was “significantly altered”, the blood protein levels ([6]; bled on day 7) was “unchanged” and the “dehydration as measured by blood electrolyte levels and renal function” value ([6]; bled on day 7) was “stable”. For the same molecule, the “immune cell proliferation in the blood” value ([6]; bled on day 7) was “no impact”, the “signs of toxicity in the blood chemistry analysis or in critical blood cell counts” value ([6]; bled on day 7) was “no signs of toxicity” and the “Cell Death Prophylactic” value (NHBE cells [7]) was “C = V”. The “Cell Death Therapeutic” value (NHBE cells [7]) was “C > V”, the “NHBE cell survival / cell death after infection” value (NHBE cells [7]) was “differentially affected; also recorded: differential effects” and the “viral titer from the lungs (HA titer)” value (CA09 [8]; four days following infection, NVP-BEZ235 25 mg/kg oral gavage, titered on MDCK cells, 25 mg/kg) was “significant reduction; also recorded: significantly lower”. For the same molecule, the influenza-induced mortality (CA09 [8]; infected adult mice) was “reduces”, the weight loss (CA09 [8]; mice infected intranasally with CA09, daily drug for 7 days from 2 days before infection (NVP-BEZ235 25 mg/kg oral gavage; clotrimazole 120 mg/kg ip; α-mangostin 8 mg/kg ip)) was “no significant effects; also recorded: no effect” and the survival (CA09 [8]; mice infected intranasally with CA09, daily drug for 7 days from 2 days before infection, monitored 15 days) was “profound improvement; also recorded: dramatically improved”.

With “polyinosinic polycytidylic acid [PolylC]” the “all metabolites measured in flux assays” value (BMDCs) was “extreme drops”.
